In patent publication US20220323406A1, “METHODS AND COMPOSITIONS FOR DIFFERENTIATING STEM CELLS” (Massachusetts Institute of Technology, priority 2019, published 2022):

Key:
[1] = system: ENR+CD organoids (ISC to Paneth cell differentiation); experiment: Primary screen: basal (non-stimulated) lysozyme secretion LYZ.NS, 2.5-D 384-well ENR+CD organoid differentiation; assay type: cell-based, mouse; details: primary screen; for Z.LYZ.NS: standard z score
From the text: (§1) High-throughput screening.

[2] = system: ENR+CD organoids (ISC to Paneth cell differentiation); experiment: Primary screen: CCh-stimulated lysozyme secretion LYZ.S, 2.5-D 384-well ENR+CD organoid differentiation; assay type: cell-based, mouse; details: primary screen
From the text: as §1

ENR+CD organoids = experiment: Primary screen: ATP (CellTiter-Glo 3D, CTG) cell number/viability, 2.5-D 384-well ENR+CD organoids; details: primary screen; for Z.CTG: standard z score;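 on all read-outs here: compounds given at plating and again on day 3 over a 6-day differentiation from ENR+CV stem-cell-enriched precursors, ATP measured on day 6, plate median as control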
[3] = dose 0.08 uM, FC vs plate median
[4] = dose 0.40 uM, FC vs plate median
[5] = dose 2.00 uM, FC vs plate median
[6] = dose 10.00 uM, FC vs plate median
[7] = dose 0.08 uM, FC relative to plate median
[8] = dose 0.40 uM, FC relative to plate median
[9] = dose 2.00 uM, FC relative to plate median
[10] = dose 10.00 uM, FC relative to plate median

Row | Molecule | Z.LYZ.NS (standard z score) ([1]; dose 0.08 uM) | Z.LYZ.NS (standard z score) ([1]; dose 0.40 uM) | Z.LYZ.NS (standard z score) ([1]; dose 2.00 uM) | Z.LYZ.NS (standard z score) ([1]; dose 10.00 uM) | Z.CTG (standard z score) (ENR+CD organoids; dose 0.08 uM) | Z.CTG (standard z score) (ENR+CD organoids; dose 0.40 uM) | Z.CTG (standard z score) (ENR+CD organoids; dose 2.00 uM) | Z.CTG (standard z score) (ENR+CD organoids; dose 10.00 uM) | Dose.FC.LYZ.NS ([1]; dose 0.08 uM) [log2 fold change] | Dose.FC.LYZ.NS ([1]; dose 0.40 uM) [log2 fold change] | Dose.FC.LYZ.NS ([1]; dose 2.00 uM) [log2 fold change] | Dose.FC.LYZ.NS ([1]; dose 10.00 uM) [log2 fold change] | Dose.FC.LYZ.S ([2]; dose 0.08 uM) [log2 fold change] | Dose.FC.LYZ.S ([2]; dose 0.40 uM) [log2 fold change] | Dose.FC.LYZ.S ([2]; dose 2.00 uM) [log2 fold change] | Dose.FC.LYZ.S ([2]; dose 10.00 uM) [log2 fold change] | Dose.FC.CTG (ENR+CD organoids; dose 0.08 uM) [log2 fold change] | Dose.FC.CTG (ENR+CD organoids; dose 0.40 uM) [log2 fold change] | Dose.FC.CTG (ENR+CD organoids; dose 2.00 uM) [log2 fold change] | Dose.FC.CTG (ENR+CD organoids; dose 10.00 uM) [log2 fold change] | other results
1 | Cc1cccc(CC(=O)N2CCc3c2ccc(-c2cn(C)c4ncnc(N)c24)c3F)n1 [GSK2656157] | −0.267 | −0.396 | −0.291 | −0.102 | 0.162 | 0.274 | 0.197 | 0.284 | – | – | – | – | – | – | – | – | – | – | – | – | Dose.FC.LYZ.NS (log2 fold change) ([1]; dose 0.08 uM): −0.031; Dose.FC.LYZ.NS (log2 fold change) ([1]; dose 0.40 uM): −0.045; Dose.FC.LYZ.NS (log2 fold change) ([1]; dose 2.00 uM): −0.033; Dose.FC.LYZ.NS (log2 fold change) ([1]; dose 10.00 uM): −0.012; Dose.FC.LYZ.S (log2 fold change) ([2]; dose 0.08 uM): −0.008; Dose.FC.LYZ.S (log2 fold change) ([2]; dose 0.40 uM): 0.060; Dose.FC.LYZ.S (log2 fold change) ([2]; dose 2.00 uM): −0.020; Dose.FC.LYZ.S (log2 fold change) ([2]; dose 10.00 uM): 0.090; Dose.FC.CTG (log2 fold change) (ENR+CD organoids; dose 0.08 uM): 0.068; Dose.FC.CTG (log2 fold change) (ENR+CD organoids; dose 0.40 uM): 0.115; Dose.FC.CTG (log2 fold change) (ENR+CD organoids; dose 2.00 uM): 0.083; Dose.FC.CTG (log2 fold change) (ENR+CD organoids; dose 10.00 uM): 0.119
2 | Cc1c(Cc2ccc3ccccc3n2)c2cc(F)ccc2n1CC(=O)O [OC000459] | – | – | – | – | – | – | – | – | – | – | – | – | – | – | – | – | – | – | – | – | Z.LYZ.NS ([1]; dose 0.08 uM): 0.416; Z.LYZ.NS ([1]; dose 0.40 uM): 0.461; Z.LYZ.NS ([1]; dose 2.00 uM): 0.507; Z.LYZ.NS ([1]; dose 10.00 uM): 0.287; Dose.FC.LYZ.NS [1, 3]: 0.048 log2 fold change; Dose.FC.LYZ.NS [1, 4]: 0.053 log2 fold change; Dose.FC.LYZ.NS [1, 5]: 0.058 log2 fold change; Dose.FC.LYZ.NS [1, 6]: 0.033 log2 fold change; Dose.FC.LYZ.S [2, 3]: 0.090 log2 fold change; Dose.FC.LYZ.S [2, 4]: 0.199 log2 fold change; Dose.FC.LYZ.S [2, 5]: 0.130 log2 fold change; Dose.FC.LYZ.S [2, 6]: 0.051 log2 fold change; Dose.FC.CTG (ENR+CD organoids; [3]): 0.077 log2 fold change; Dose.FC.CTG (ENR+CD organoids; [4]): −0.065 log2 fold change; Dose.FC.CTG (ENR+CD organoids; [5]): 0.088 log2 fold change; Dose.FC.CTG (ENR+CD organoids; [6]): 0.088 log2 fold change
3 | COc1ccc(CNCc2cccc3ccccc23)cc1.Cl [ML133 HCl] | – | – | – | – | – | – | – | – | – | – | – | – | – | – | – | – | – | – | – | – | Z.LYZ.NS ([1]; dose 0.08 uM): 0.261; Z.LYZ.NS ([1]; dose 0.40 uM): −0.116; Z.LYZ.NS ([1]; dose 2.00 uM): 0.633; Z.LYZ.NS ([1]; dose 10.00 uM): −0.155; Dose.FC.LYZ.NS [1, 3]: 0.030 log2 fold change; Dose.FC.LYZ.NS [1, 4]: −0.013 log2 fold change; Dose.FC.LYZ.NS [1, 5]: 0.073 log2 fold change; Dose.FC.LYZ.NS [1, 6]: −0.018 log2 fold change; Dose.FC.LYZ.S [2, 3]: 0.062 log2 fold change; Dose.FC.LYZ.S [2, 4]: −0.018 log2 fold change; Dose.FC.LYZ.S [2, 5]: 0.087 log2 fold change; Dose.FC.LYZ.S [2, 6]: −0.014 log2 fold change; Z.CTG (ENR+CD organoids; dose 0.08 uM): −0.023; Z.CTG (ENR+CD organoids; dose 0.40 uM): −0.360; Z.CTG (ENR+CD organoids; dose 2.00 uM): −0.591; Z.CTG (ENR+CD organoids; dose 10.00 uM): −0.096; Dose.FC.CTG (ENR+CD organoids; [3]): −0.009 log2 fold change; Dose.FC.CTG (ENR+CD organoids; [4]): −0.151 log2 fold change; Dose.FC.CTG (ENR+CD organoids; [5]): −0.247 log2 fold change; Dose.FC.CTG (ENR+CD organoids; [6]): −0.040 log2 fold change
4 | CC(C)[C@H](O)C(=O)N[C@@H](C)C(=O)N[C@@H]1C(=O)N(C)CCc2ccccc21 [Semagacestat (LY450139)] | – | – | – | – | – | – | – | – | – | – | – | – | – | – | – | – | – | – | – | – | Dose.FC.LYZ.NS [1, 7]: 0.017 log2 fold change; Z.LYZ.NS ([1]; dose 0.08 uM): 0.151; Dose.FC.LYZ.NS [1, 8]: −0.021 log2 fold change; Z.LYZ.NS ([1]; dose 0.40 uM): −0.181; Dose.FC.LYZ.NS [1, 9]: −0.081 log2 fold change; Z.LYZ.NS ([1]; dose 2.00 uM): −0.704; Dose.FC.LYZ.NS [1, 10]: −0.108 log2 fold change; Z.LYZ.NS ([1]; dose 10.00 uM): −0.942; Dose.FC.LYZ.S [2, 7]: −0.014 log2 fold change; Dose.FC.LYZ.S [2, 8]: −0.006 log2 fold change; Dose.FC.LYZ.S [2, 9]: −0.081 log2 fold change; Dose.FC.LYZ.S [2, 10]: −0.162 log2 fold change; Dose.FC.CTG (ENR+CD organoids; [7]): 0.141 log2 fold change; Z.CTG (ENR+CD organoids; dose 0.08 uM): 0.338; Dose.FC.CTG (ENR+CD organoids; [8]): −0.207 log2 fold change; Z.CTG (ENR+CD organoids; dose 0.40 uM): −0.494; Dose.FC.CTG (ENR+CD organoids; [9]): −0.128 log2 fold change; Z.CTG (ENR+CD organoids; dose 2.00 uM): −0.306; Dose.FC.CTG (ENR+CD organoids; [10]): −0.856 log2 fold change; Z.CTG (ENR+CD organoids; dose 10.00 uM): −2.045
5 | O=C1C(=O)N(Cc2ccc(Cl)c(Cl)c2)c2ccccc21 [Apoptosis Activator 2] | 1.302 | 0.290 | −0.049 | −1.734 | 0.725 | 0.626 | 0.195 | −0.378 | 0.149 | 0.033 | −0.006 | −0.199 | 0.132 | 0.073 | −0.009 | −0.252 | 0.304 | 0.262 | 0.082 | −0.158 | –
6 | Maraviroc | 0.411 | 0.358 | 0.269 | 0.759 | – | – | – | – | – | – | – | – | – | – | – | – | – | – | – | – | Dose.FC.LYZ.NS (log2 fold change) ([1]; dose 0.08 uM): 0.047; Dose.FC.LYZ.NS (log2 fold change) ([1]; dose 0.40 uM): 0.041; Dose.FC.LYZ.NS (log2 fold change) ([1]; dose 2.00 uM): 0.031; Dose.FC.LYZ.NS (log2 fold change) ([1]; dose 10.00 uM): 0.087; Dose.FC.LYZ.S (log2 fold change) ([2]; dose 0.08 uM): 0.054; Dose.FC.LYZ.S (log2 fold change) ([2]; dose 0.40 uM): 0.195; Dose.FC.LYZ.S (log2 fold change) ([2]; dose 2.00 uM): 0.005; Dose.FC.LYZ.S (log2 fold change) ([2]; dose 10.00 uM): 0.077; Dose.FC.CTG (log2 fold change) (ENR+CD organoids; dose 0.08 uM): −0.084; Dose.FC.CTG (log2 fold change) (ENR+CD organoids; dose 0.40 uM): 0.079; Dose.FC.CTG (log2 fold change) (ENR+CD organoids; dose 2.00 uM): −0.009; Dose.FC.CTG (log2 fold change) (ENR+CD organoids; dose 10.00 uM): 0.139
7 | O=C(/C=C/c1cccc(S(=O)(=O)Nc2ccccc2)c1)NO [Belinostat (PXD101)] | 0.067 | 1.125 | −1.510 | −1.709 | −0.543 | −0.133 | −1.868 | −2.679 | 0.008 | 0.129 | −0.173 | −0.196 | −0.059 | 0.042 | −0.264 | −0.327 | −0.227 | −0.055 | −0.782 | −1.122 | –
8 | CS(=O)(=O)c1ccc(-c2cnc(N)c(C(=O)Nc3ccccc3)n2)cc1 [VE-821] | 0.924 | 0.544 | 0.901 | −2.475 | – | – | – | – | 0.106 | 0.063 | 0.103 | −0.284 | 0.130 | 0.089 | −0.004 | −0.429 | 0.213 | 0.130 | −0.137 | −0.840 | –
9 | COc1cc2ncnc(Nc3ccc(Cl)cc3F)c2cc1OC [ZM 306416] | 0.912 | −1.942 | −2.531 | −2.395 | −0.190 | −1.155 | −3.135 | −3.559 | 0.105 | −0.223 | −0.291 | −0.275 | 0.006 | −0.288 | −0.403 | −0.431 | −0.080 | −0.483 | −1.312 | −1.490 | –
10 | Cc1cnc(NC(=O)Nc2cc(Br)c(C)cc2OC[C@@H]2CNCCO2)cn1 [LY2603618] | −0.046 | −0.791 | −1.685 | −2.026 | −0.010 | −0.567 | −0.946 | −2.347 | – | – | – | – | – | – | – | – | – | – | – | – | Dose.FC.LYZ.NS (log2 fold change) ([1]; dose 0.08 uM): −0.005; Dose.FC.LYZ.NS (log2 fold change) ([1]; dose 0.40 uM): −0.091; Dose.FC.LYZ.NS (log2 fold change) ([1]; dose 2.00 uM): −0.193; Dose.FC.LYZ.NS (log2 fold change) ([1]; dose 10.00 uM): −0.233; Dose.FC.LYZ.S (log2 fold change) ([2]; dose 0.08 uM): 0.009; Dose.FC.LYZ.S (log2 fold change) ([2]; dose 0.40 uM): −0.147; Dose.FC.LYZ.S (log2 fold change) ([2]; dose 2.00 uM): −0.269; Dose.FC.LYZ.S (log2 fold change) ([2]; dose 10.00 uM): −0.356; Dose.FC.CTG (log2 fold change) (ENR+CD organoids; dose 0.08 uM): −0.004; Dose.FC.CTG (log2 fold change) (ENR+CD organoids; dose 0.40 uM): −0.238; Dose.FC.CTG (log2 fold change) (ENR+CD organoids; dose 2.00 uM): −0.396; Dose.FC.CTG (log2 fold change) (ENR+CD organoids; dose 10.00 uM): −0.983
